PubChem BioAssay (NCI)
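GI50 is the concentration that inhibits growth by half. TGI: total growth inhibition.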

Legend:
Assay in all cases: NCI-60 cell line screen, 384-well format
[1] = tested on: A498 renal
[2] = tested on: BT-549 breast
[3] = tested on: CAKI-1 renal
[4] = tested on: CCRF-CEM leukemia
[5] = tested on: DU-145 prostate
[6] = tested on: EKVX NSCLC
[7] = tested on: HCC-2998 colon
[8] = tested on: HCT-116 colon
[9] = tested on: HCT-15 colon
[10] = tested on: HL-60(TB) leukemia
[11] = tested on: HOP-62 NSCLC
[12] = tested on: HOP-92 NSCLC
[13] = tested on: HS 578T breast
[14] = tested on: HT29 colon
[15] = tested on: IGROV1 ovarian
[16] = tested on: K-562 leukemia
[17] = tested on: KM12 colon
[18] = tested on: LOX IMVI melanoma
[19] = tested on: MALME-3M melanoma
[20] = tested on: MCF7 breast
[21] = tested on: MDA-MB-231 breast
[22] = tested on: MDA-MB-468 breast
[23] = tested on: NCI-H226 lung
[24] = tested on: NCI-H322M lung
[25] = tested on: NCI-H460 NSCLC
[26] = tested on: NCI-H522 lung
[27] = tested on: NCI/ADR-RES ovarian
[28] = tested on: OVCAR-3 ovarian
[29] = tested on: OVCAR-4 ovarian
[30] = tested on: OVCAR-5 ovarian
[31] = tested on: OVCAR-8 ovarian
[32] = tested on: PC-3 prostate
[33] = tested on: RPMI-8226 leukemia
[34] = tested on: RXF 393 renal
[35] = tested on: SF-268 CNS
[36] = tested on: SF-295 CNS
[37] = tested on: SF-539 CNS
[38] = tested on: SK-MEL-2 melanoma
[39] = tested on: SK-MEL-28 melanoma
[40] = tested on: SN12C renal
[41] = tested on: SNB-19 CNS
[42] = tested on: SNB-75 CNS
[43] = tested on: SR leukemia
[44] = tested on: SW-620 colon
[45] = tested on: U251 glioblastoma
[46] = tested on: UACC-62 melanoma
[47] = tested on: UO-31 renal

With `Cc1ncsc1-c1ccc(CNC(=O)[C@@H]2C[C@@H](O)CN2C(=O)[C@@H](NC(=O)C2(C#N)CC2)C(C)(C)C)cc1` the GI50 [1] was > 100 µM, the TGI [1] was > 100 µM and the GI50 [2] was > 100 µM. The TGI [2] was > 100 µM, the GI50 [3] was > 100 µM and the TGI [3] was > 100 µM. For the same molecule, the GI50 [4] was > 100 µM, the TGI [4] was > 100 µM and the GI50 [5] was > 100 µM. The TGI [5] was > 100 µM, the GI50 [6] was > 100 µM and the TGI [6] was > 100 µM. The GI50 [7] was > 100 µM, the TGI [7] was > 100 µM and the GI50 [8] was > 100 µM. The TGI [8] was > 100 µM, the GI50 [9] was > 100 µM and the TGI [9] was > 100 µM. For the same molecule, the GI50 [10] was > 100000 nM, the TGI [10] was > 100 µM and the GI50 [11] was > 100 µM. The TGI [11] was > 100 µM, the GI50 [12] was > 100 µM and the TGI [12] was > 100 µM. For the same molecule, the GI50 [13] was > 100 µM, the TGI [13] was > 100 µM and the GI50 [14] was > 100 µM. For the same molecule, the TGI [14] was > 100 µM, the GI50 [15] was > 100 µM and the TGI [15] was > 100 µM. For the same molecule, the GI50 [16] was > 100 µM, the TGI [16] was > 100 µM and the GI50 [17] was > 100 µM. The TGI [17] was > 100 µM, the GI50 [18] was > 100 µM and the TGI [18] was > 100 µM. For the same molecule, the GI50 [19] was > 100 µM, the TGI [19] was > 100 µM and the GI50 [20] was > 100 µM. The TGI [20] was > 100 µM, the GI50 [21] was > 100 µM and the TGI [21] was > 100 µM. For the same molecule, the GI50 [22] was > 100 µM, the TGI [22] was > 100 µM and the GI50 [23] was > 100 µM. The TGI [23] was > 100 µM, the GI50 [24] was > 100 µM and the TGI [24] was > 100 µM. For the same molecule, the GI50 [25] was > 100 µM, the TGI [25] was > 100 µM and the GI50 [26] was > 100 µM. The TGI [26] was > 100 µM, the GI50 [27] was > 100 µM and the TGI [27] was > 100 µM. For the same molecule, the GI50 [28] was > 100 µM, the TGI [28] was > 100 µM and the GI50 [29] was > 100 µM. The TGI [29] was > 100 µM, the GI50 [30] was > 100 µM and the TGI [30] was > 100 µM. For the same molecule, the GI50 [31] was > 100 µM, the TGI [31] was > 100 µM and the GI50 [32] was > 100 µM. The TGI [32] was > 100 µM, the GI50 [33] was 46.7 µM and the TGI [33] was > 90.7 µM. The GI50 [34] was > 100 µM, the TGI [34] was > 100 µM and the GI50 [35] was 99.7 µM. The TGI [35] was > 100 µM, the GI50 [36] was > 100 µM and the TGI [36] was > 100 µM. For the same molecule, the GI50 [37] was > 100 µM, the TGI [37] was > 100 µM and the GI50 [38] was > 100 µM. The TGI [38] was > 100 µM, the GI50 [39] was > 100 µM and the TGI [39] was > 100 µM. For the same molecule, the GI50 [40] was > 100 µM, the TGI [40] was > 100 µM and the GI50 [41] was > 100 µM. For the same molecule, the TGI [41] was > 100 µM, the GI50 [42] was > 94.8 µM and the TGI [42] was > 100 µM. The GI50 [43] was > 100 µM, the TGI [43] was > 100 µM and the GI50 [44] was > 100 µM. The TGI [44] was > 100 µM, the GI50 [45] was > 100 µM and the TGI [45] was > 100 µM. For the same molecule, the GI50 [46] was > 100 µM, the TGI [46] was > 100 µM and the GI50 [47] was > 100 µM. The TGI [47] was > 100 µM.

In the case of `O=C(NCc1ccncc1)C12CC3CC(C1)CC(c1ccc(Cl)cc1)(C3)C2`, the GI50 [1] is reported as 12.7 µM, the TGI [1] is reported as 25.5 µM and the GI50 [2] is reported as 8.85 µM. It also gave a TGI [2] of 21.5 µM, a GI50 [3] of 14.9 µM and a TGI [3] of 28.3 µM. It also gave a GI50 [4] of 6.92 µM, a TGI [4] of 17.6 µM and a GI50 [5] of 14.5 µM. For the same molecule, the TGI [5] was 27.8 µM, the GI50 [6] was 13.2 µM and the TGI [6] was 26 µM. The GI50 [7] was 11.1 µM, the TGI [7] was 25.2 µM and the GI50 [8] was 9.03 µM. It also gave a TGI [8] of 22.7 µM, a GI50 [9] of 11.7 µM and a TGI [9] of 24.9 µM. It also gave a GI50 [10] of 2750 nM, a TGI [10] of 6.12 µM and a GI50 [11] of 16.1 µM. For the same molecule, the TGI [11] was 29.7 µM, the GI50 [12] was 10.8 µM and the TGI [12] was 23.1 µM. It also gave a GI50 [13] of 11.8 µM, a TGI [13] of 24.2 µM and a GI50 [14] of 12.1 µM. It also gave a TGI [14] of 24.8 µM, a GI50 [15] of 12.1 µM and a TGI [15] of 24.6 µM. The GI50 [16] was 4.94 µM, the TGI [16] was 16.3 µM and the GI50 [17] was 13.1 µM. The TGI [17] was 25.9 µM, the GI50 [18] was 15.9 µM and the TGI [18] was 29.6 µM. The GI50 [19] was 15.6 µM, the TGI [19] was 29.1 µM and the GI50 [20] was 10.4 µM. For the same molecule, the TGI [20] was 23.5 µM, the GI50 [21] was 11.1 µM and the TGI [21] was 23.5 µM. The GI50 [22] was 5.39 µM, the TGI [22] was 15.1 µM and the GI50 [23] was 14.4 µM. The TGI [23] was 27.6 µM, the GI50 [24] was 17.5 µM and the TGI [24] was 31.5 µM. The GI50 [25] was 12.7 µM, the TGI [25] was 25.9 µM and the GI50 [26] was 11.5 µM. It also gave a TGI [26] of 23.9 µM, a GI50 [27] of 9.62 µM and a TGI [27] of 21.8 µM. It also gave a GI50 [28] of 10.8 µM, a TGI [28] of 23.7 µM and a GI50 [29] of 13.6 µM. It also gave a TGI [29] of 26.5 µM, a GI50 [30] of 18 µM and a TGI [30] of 31.9 µM. The GI50 [31] was 13 µM, the TGI [31] was 25.9 µM and the GI50 [32] was 8.88 µM. The TGI [32] was 21.7 µM, the GI50 [33] was 3.59 µM and the TGI [33] was 9.73 µM. For the same molecule, the GI50 [34] was 7.13 µM, the TGI [34] was 20 µM and the GI50 [35] was 14.2 µM. For the same molecule, the TGI [35] was 27.3 µM, the GI50 [36] was 14.1 µM and the TGI [36] was 27.2 µM. The GI50 [37] was 16 µM, the TGI [37] was 29.7 µM and the GI50 [38] was 13 µM. The TGI [38] was 25.7 µM, the GI50 [39] was 17.3 µM and the TGI [39] was 31.1 µM. It also gave a GI50 [40] of 14.4 µM, a TGI [40] of 27.5 µM and a GI50 [41] of 16.3 µM. It also gave a TGI [41] of 30 µM, a GI50 [42] of 15 µM and a TGI [42] of 28.3 µM. For the same molecule, the GI50 [43] was 5.05 µM, the TGI [43] was 9.66 µM and the GI50 [44] was 13.7 µM. The TGI [44] was 26.8 µM, the GI50 [45] was 15.3 µM and the TGI [45] was 28.8 µM. It also gave a GI50 [46] of 14 µM, a TGI [46] of 27.1 µM and a GI50 [47] of 11.9 µM. It also gave a TGI [47] of 24.4 µM.
